Assay results as given in ChEMBL document CHEMBL1629541, “Synthesis and structure-activity relationships of aza- and diazabiphenyl analogues of the antitubercular drug (6S)-2-nitro-6-{[4-(trifluoromethoxy)benzyl]oxy}-6,7-dihydro-5H-imidazo[2,1-b][1,3]oxazine (PA-824)” (J Med Chem, 2010).
In brackets after ≈: the same amount, converted by molar mass.

Legend:
physchem [1] = conditions: water, pH 7
Description: Solubility of the compound in water at pH 7.0 by HPLC

[2] = system: Mycobacterium tuberculosis; test: microbe, parasite or virus in culture; conditions: H37Rv
[3] = system: Mycobacterium tuberculosis; test: microbe, parasite or virus in culture; conditions: H37Rv; remark: listed apart in the source
Description: Antitubercular activity against Mycobacterium tuberculosis H37Rv by LORA method

[4] = AUC (0-infinity) in CD1 mouse plasma at 40 mg/kg, po administered as single dose; format: ADME, organism-based; parameters: time infinity, dose 40 mg/kg, route oral
physchem [5] = conditions: water, pH 1
Description: Solubility of the compound in water at pH 1.0 by HPLC

[6] = Cmax in CD1 mouse plasma at 40 mg/kg, po administered as single dose; format: ADME, organism-based; parameters: dose 40 mg/kg, route oral
in vitro [7] = conditions: human, liver microsomes
Description: Metabolic stability in human liver microsomes assessed as compound remaining after 1 hr

[8] = Cmax in CD1 mouse lung at 40 mg/kg, po administered as single dose; format: ADME, organism-based; parameters: dose 40 mg/kg, route oral
[9] = AUC (0-infinity) in CD1 mouse lung at 40 mg/kg, po administered as single dose; format: ADME, organism-based; parameters: time infinity, dose 40 mg/kg, route oral
in vitro [10] = conditions: CD1, mouse, liver microsomes
Description: Metabolic stability in CD1 mouse liver microsomes assessed as compound remaining after 1 hr

[11] = Thermodynamic solubility in aqueous buffer at pH 7.4 at 20 degC by HPLC; format: physicochemical
[12] = Half life in CD1 mouse lung at 40 mg/kg, po administered as single dose; format: ADME, organism-based; parameters: dose 40 mg/kg, route oral
[13] = Half life in CD1 mouse plasma at 40 mg/kg, po administered as single dose; format: ADME, organism-based; parameters: dose 40 mg/kg, route oral
[14] = Thermodynamic solubility in aqueous buffer at pH 1 at 20 degC by HPLC; format: physicochemical; conditions: aqueous buffer

SMILES | solubility (physchem [1]) [µg/mL] | MIC [2] [µM] | MIC [3] [µM] | also measured
N#Cc1ccc(-c2ccc(CO[C@@H]3COc4nc([N+](=O)[O-])cn4C3)nn2)cc1 | 22 (≈ 58.1 µM) | 0.36 (≈ 0.136 µg/mL) | 13 (≈ 4.92 µg/mL) | –
O=[N+]([O-])c1cn2c(n1)OC[C@@H](OCc1ccc(-c3ccc(F)cc3)nn1)C2 | 8.3 (≈ 22.4 µM) | 0.19 (≈ 0.0706 µg/mL) | 5.6 (≈ 2.08 µg/mL) | –
O=[N+]([O-])c1cn2c(n1)OC[C@@H](OCc1ccc(-c3ccc(OC(F)(F)F)cc3)nn1)C2 | – | 0.075 (≈ 0.0328 µg/mL) | 1.7 (≈ 0.743 µg/mL) | AUC(0-inf) [4]: 52 µg·h/mL; solubility (physchem [5]): 31 µg/mL (≈ 70.9 µM); Cmax [6]: 3600 ng/mL; remaining at 1 h (in vitro [7]): 94%; Cmax [8]: 7000 ng/mL; AUC(0-inf) [9]: 94 µg·h/mL; remaining at 1 h (in vitro [10]): 92%; solubility thermodynamic [11]: 3 µg/mL (≈ 6.86 µM); half-life [12]: 3.4 h; half-life [13]: 2.9 h; solubility thermodynamic [14]: 10 µg/mL (≈ 22.9 µM)
O=[N+]([O-])c1cn2c(n1)OC[C@@H](OCc1ccc(-c3ccc(OC(F)F)cc3)nn1)C2 | 1.3 (≈ 3.1 µM) | 0.17 (≈ 0.0713 µg/mL) | 7.5 (≈ 3.15 µg/mL) | –
COc1ccc(-c2ccc(CO[C@@H]3COc4nc([N+](=O)[O-])cn4C3)nn2)cc1F | 6.8 (≈ 16.9 µM) | 0.25 (≈ 0.1 µg/mL) | 6.6 (≈ 2.65 µg/mL) | –
O=[N+]([O-])c1cn2c(n1)OC[C@@H](OCc1ccc(-c3ccc(C(F)(F)F)nc3)nn1)C2 | 12 (≈ 28.4 µM) | 0.55 (≈ 0.232 µg/mL) | 14 (≈ 5.91 µg/mL) | –
COc1ccc(-c2ccc(CO[C@@H]3COc4nc([N+](=O)[O-])cn4C3)nn2)cn1 | 34 (≈ 88.5 µM) | 0.72 (≈ 0.277 µg/mL) | 20 (≈ 7.69 µg/mL) | –
O=[N+]([O-])c1cn2c(n1)OC[C@@H](OCc1cnc(-c3ccc(C(F)(F)F)cc3)cn1)C2 | 0.84 (≈ 1.99 µM) | 0.08 (≈ 0.0337 µg/mL) | 0.97 (≈ 0.409 µg/mL) | –
O=[N+]([O-])c1cn2c(n1)OC[C@@H](OCc1cnc(-c3ccc(F)cc3)cn1)C2 | 8.9 (≈ 24 µM) | 0.085 (≈ 0.0316 µg/mL) | 2 (≈ 0.743 µg/mL) | –
O=[N+]([O-])c1cn2c(n1)OC[C@@H](OCc1cnc(-c3ccc(OC(F)F)cc3)cn1)C2 | 5 (≈ 11.9 µM) | 0.2 (≈ 0.0839 µg/mL) | 1.3 (≈ 0.545 µg/mL) | –
O=[N+]([O-])c1cn2c(n1)OC[C@@H](OCc1cnc(-c3ccc(C(F)(F)F)nc3)cn1)C2 | 27 (≈ 63.9 µM) | 0.33 (≈ 0.139 µg/mL) | 3.7 (≈ 1.56 µg/mL) | –
O=[N+]([O-])c1cn2c(n1)OC[C@@H](OCc1ncc(-c3ccc(C(F)(F)F)cc3)cn1)C2 | 2.7 (≈ 6.41 µM) | 0.06 (≈ 0.0253 µg/mL) | 3.5 (≈ 1.47 µg/mL) | –
O=[N+]([O-])c1cn2c(n1)OC[C@@H](OCc1ncc(-c3ccc(F)cc3)cn1)C2 | 50 (≈ 135 µM) | 0.13 (≈ 0.0483 µg/mL) | 12 (≈ 4.46 µg/mL) | –
O=[N+]([O-])c1cn2c(n1)OC[C@@H](OCc1ncc(-c3ccc(OC(F)(F)F)cc3)cn1)C2 | – | 0.11 (≈ 0.0481 µg/mL) | 1.9 (≈ 0.831 µg/mL) | solubility (physchem [5]): 5.1 µg/mL (≈ 11.7 µM); remaining at 1 h (in vitro [7]): 92%; remaining at 1 h (in vitro [10]): 87%
O=[N+]([O-])c1cn2c(n1)OC[C@@H](OCc1ncc(-c3ccc(OC(F)F)cc3)cn1)C2 | 7.8 (≈ 18.6 µM) | 0.12 (≈ 0.0503 µg/mL) | 7.4 (≈ 3.1 µg/mL) | –
O=[N+]([O-])c1cn2c(n1)OC[C@@H](OCc1ncc(-c3ccc(C(F)(F)F)nc3)cn1)C2 | 85 (≈ 201 µM) | 0.28 (≈ 0.118 µg/mL) | 14 (≈ 5.91 µg/mL) | –
O=[N+]([O-])c1cn2c(n1)OC[C@@H](OCc1cnc(-c3ccc(OC(F)F)cc3)nc1)C2 | 1.1 (≈ 2.62 µM) | 0.13 (≈ 0.0545 µg/mL) | 4.4 (≈ 1.85 µg/mL) | –
O=[N+]([O-])c1cn2c(n1)OC[C@@H](OCc1ccc(-c3ncc(C(F)(F)F)cc3Cl)cc1)C2 | 3.3 (≈ 7.26 µM) | 0.025 (≈ 0.0114 µg/mL) | 1 (≈ 0.455 µg/mL) | solubility (physchem [5]): 2 µg/mL (≈ 4.4 µM); remaining at 1 h (in vitro [7]): 86%; remaining at 1 h (in vitro [10]): 80%
O=[N+]([O-])c1cn2c(n1)OC[C@@H](OCc1ccc(-c3ccc(F)cn3)cc1)C2 | – | 0.035 (≈ 0.013 µg/mL) | 1.3 (≈ 0.481 µg/mL) | solubility (physchem [5]): 275 µg/mL (≈ 743 µM); remaining at 1 h (in vitro [7]): 83%; remaining at 1 h (in vitro [10]): 61%
O=[N+]([O-])c1cn2c(n1)OC[C@@H](OCc1ccc(-c3ccc(F)nc3)cc1)C2 | 8 (≈ 21.6 µM) | 0.095 (≈ 0.0352 µg/mL) | 2.1 (≈ 0.778 µg/mL) | solubility (physchem [5]): 10 µg/mL (≈ 27 µM); remaining at 1 h (in vitro [7]): 88%; remaining at 1 h (in vitro [10]): 79%
O=[N+]([O-])c1cn2c(n1)OC[C@@H](OCc1ccc(-c3ccc(OC(F)F)nc3)cc1)C2 | 3.2 (≈ 7.65 µM) | 0.045 (≈ 0.0188 µg/mL) | 0.66 (≈ 0.276 µg/mL) | remaining at 1 h (in vitro [7]): 95%; remaining at 1 h (in vitro [10]): 75%
O=[N+]([O-])c1cn2c(n1)OC[C@@H](OCc1ccc(-c3ccnc(F)c3)cc1)C2 | 14 (≈ 37.8 µM) | 0.23 (≈ 0.0852 µg/mL) | 1.4 (≈ 0.518 µg/mL) | solubility (physchem [5]): 15 µg/mL (≈ 40.5 µM); remaining at 1 h (in vitro [7]): 93%; remaining at 1 h (in vitro [10]): 86%
O=[N+]([O-])c1cn2c(n1)OC[C@@H](OCc1ccc(-c3ccc(OC(F)(F)F)cc3)cc1)C2 | – | – | – | AUC(0-inf) [4]: 198 µg·h/mL; solubility (physchem [5]): 1.1 µg/mL (≈ 2.53 µM); Cmax [6]: 7400 ng/mL; Cmax [8]: 9000 ng/mL; AUC(0-inf) [9]: 218 µg·h/mL; solubility thermodynamic [11]: < 0.1 µg/mL; half-life [12]: 13 h; solubility thermodynamic [14]: < 0.1 µg/mL
O=[N+]([O-])c1cn2c(n1)OC[C@@H](OCc1ccc(OC(F)(F)F)cc1)C2 [PRETOMANID] | – | – | – | solubility thermodynamic [14]: 11 µg/mL (≈ 30.6 µM)
